Test results as given in the supplement of paper PMC8671470.

Assays:
Experiment in all cases: cell viability (% survival relative to DMSO control, bortezomib = 0%); higher = less cytotoxic
Conditions in all cases: 72 h
[1] = system: KCL-22
How it was run: (§1)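 Percent survival is reported as the mean of duplicate wells. Cells from 10 AML and 5 CML lines were plated in 384-well plates containing compounds at 1, 10, 100, 1000 or 10000 nM and kept for 72 h at 37 °C in 5% CO2. Readout used CellTiter-Glo luminescence, scaled so that vehicle equals 100% and a 10 µM positive control equals 0%.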

[2] = system: BV-173
How it was run: as §1

[3] = system: ML-2
How it was run: as §1

[4] = system: K-562
How it was run: as §1

SMILES	cell viability ([1]; 1 nM)	cell viability ([1]; 10 nM)	cell viability ([1]; 100 nM)	cell viability ([1]; 1000 nM)	cell viability ([1]; 10000 nM)	cell viability ([2]; 1 nM)	cell viability ([2]; 10 nM)	cell viability ([2]; 100 nM)	cell viability ([2]; 1000 nM)	cell viability ([2]; 10000 nM)	cell viability ([3]; 1 nM)	cell viability ([3]; 10 nM)	cell viability ([3]; 100 nM)	cell viability ([3]; 1000 nM)	cell viability ([3]; 10000 nM)	cell viability ([4]; 1 nM)	cell viability ([4]; 10 nM)	cell viability ([4]; 100 nM)	cell viability ([4]; 1000 nM)	cell viability ([4]; 10000 nM)
Clc1ccc2c(c1Cl)CNCC2	101%	120%	92.2%	108%	91.5%	95%	95.9%	103%	107%	83.6%	91.5%	118%	90%	102%	87.9%	103%	97.7%	95.4%	107%	88.7%
O=C(O)C(S)=Cc1c[nH]c2ccc(F)cc12	111%	94.6%	102%	112%	101%	97.4%	98.1%	85.1%	97.7%	88%	101%	98.6%	113%	111%	91.5%	91%	95.7%	90.1%	116%	85.9%
CC(C)Cc1sc(N)nc1-c1ccc(P(=O)(O)O)o1	95.8%	108%	108%	112%	101%	85.3%	111%	102%	95.2%	86.7%	98.1%	108%	105%	103%	92.7%	104%	118%	109%	103%	92.5%
Cl.OC[C@H]1NC[C@@H](O)[C@@H](O)[C@@H]1O [1-Deoxymannojirimycin hydrochloride]	95.9%	86.8%	96.4%	111%	105%	111%	83.1%	96.9%	103%	102%	101%	90.6%	100%	110%	87.6%	93.7%	70.4%	104%	103%	91.6%
CN(C)c1nc(O)c2[nH]cnc2n1 [2-Dimethylamino-6-hydroxypurine]	98.2%	81.3%	106%	99%	87.1%	104%	93%	93.5%	121%	93.9%	97.7%	89.6%	95.3%	107%	94.5%	108%	89.2%	92.2%	117%	92%
O=C(O)c1cc2sccc2[nH]1 [4H-thieno[3,2-b]pyrrole-5-carboxylic acid]	90.3%	104%	84.7%	101%	99.8%	104%	102%	102%	99.1%	100%	105%	96.6%	84.2%	99.1%	113%	86.6%	106%	101%	101%	105%
[N-]=[N+]=CC(=O)CC[C@H](N)C(=O)O [6-Diazo-5-oxo-L-norleucine]	94.7%	104%	109%	109%	101%	94.8%	89.6%	107%	93.4%	96.5%	95.1%	95.3%	98.3%	116%	110%	70.8%	99.6%	99.5%	104%	92.5%
Sc1ncnc2nc[nH]c12 [6-mercaptopurine]	92.6%	89.7%	105%	52%	8.81%	103%	93.8%	86.8%	38.8%	12.3%	111%	91.3%	87.9%	56.1%	13.5%	110%	88.9%	102%	39.9%	8.69%
O=C(O)CC[C@H](NC(=O)c1ccc([N+](=O)[O-])cc1)C(=O)O [(S)-2-(4-Nitrobenzamido)pentanedioic acid]	93.4%	98.1%	107%	95.5%	90.8%	96.2%	108%	92.8%	104%	80.7%	103%	91.2%	101%	93.7%	95.4%	76.6%	91.8%	84.6%	102%	110%
O=C1Nc2ccccc2/C1=C\NCCc1ccc(O)c(O)c1 [AC1NZZMF]	79.2%	90.9%	102%	106%	94.3%	99.7%	103%	104%	94.1%	60.9%	113%	111%	101%	95.4%	75.9%	90.1%	112%	99.7%	122%	96.6%
Cc1ccc(S(=O)(=O)NC2c3ccccc3Oc3ccccc32)cc1 [AH-7614]	75.6%	84%	128%	101%	80.8%	87.1%	91.2%	102%	98.4%	104%	97.3%	99.2%	104%	104%	114%	92%	95.9%	89.9%	98.1%	76.4%
C[C@]12CC[C@H](O)CC1=CC[C@@H]1[C@@H]2CC[C@]2(C)C(c3cccnc3)=CC[C@@H]12 [Abiraterone]	99.6%	92%	111%	112%	87.2%	91.8%	96.8%	93.5%	116%	108%	116%	97.2%	101%	118%	110%	109%	113%	107%	112%	89.4%
O=C(COc1ccc(C(=O)c2ccccc2)cc1)NC1CCN(Cc2ccccc2)CC1 [AdipoRon]	102%	110%	102%	108%	76.3%	84%	105%	96.7%	87%	52.9%	84%	107%	94.5%	97.6%	65.9%	90.2%	105%	79.7%	104%	58.3%
CCOC(=O)[C@H]1O[C@@H]1C(=O)N[C@@H](CC(C)C)C(=O)NCCC(C)C [Aloxistatin]	98.4%	89.2%	102%	99.5%	87.3%	96.7%	118%	105%	96.7%	91.5%	99%	86.2%	87.1%	100%	88.3%	90.9%	112%	85.4%	105%	99.1%
N[C@](CCCCB(O)O)(CCN1CCCCC1)C(=O)O [Arginase inhibitor 1]	97%	84.6%	104%	102%	90.9%	141%	77%	90.8%	88.5%	96.1%	112%	93.9%	93.1%	93.4%	99.7%	120%	102%	93.1%	90.6%	88.4%
Cc1noc2c1-c1ccccc1C(c1ccc(Cl)cc1)=N[C@H]2CC(N)=O [CPI-0610]	123%	94.6%	91.3%	49%	27.7%	92.3%	87.8%	83.4%	33.5%	10.9%	108%	91.2%	92.5%	62.9%	33.9%	87.7%	88.2%	80.7%	32.1%	34.5%
Nc1ccn([C@@H]2O[C@H](CO)[C@@H](O)[C@@H]2O)c(=O)n1 [Cytarabine]	108%	91.6%	26.6%	14.2%	9.51%	102%	16.4%	0.292%	-1.03%	0.0249%	106%	98.5%	32%	0.0645%	1.39%	104%	70%	57.6%	32.4%	24.4%
CCOc1ccc(Cc2cc([C@@H]3O[C@H](CO)[C@@H](O)[C@H](O)[C@H]3O)ccc2Cl)cc1 [Dapagliflozin]	116%	109%	54.2%	96.7%	107%	74.5%	106%	87%	98.2%	82%	84.8%	111%	85.1%	108%	105%	98.9%	108%	81.4%	101%	94.6%
CCN(CC)CCN(Cc1ccc(-c2ccc(C(F)(F)F)cc2)cc1)C(=O)Cn1c(SCc2ccc(F)cc2)nc(=O)c2c1CCC2 [Darapladib]	112%	113%	114%	86.3%	-0.547%	100%	88.7%	94.3%	79.1%	-0.184%	102%	98.2%	88.9%	88.8%	-0.43%	99.1%	122%	81.6%	73.6%	-0.273%
O=C(O)C(Cl)Cl [Dichloroacetate]	101%	97.7%	93.4%	92.1%	102%	96.9%	91%	103%	95.7%	93.9%	91.7%	102%	103%	95.8%	103%	96.5%	108%	93%	96.2%	105%
O=C1Oc2ccccc2C(=O)C1CC1C(=O)Oc2ccccc2C1=O (stereo not given) [Dicumarol]	96.6%	97.3%	107%	107%	102%	89.5%	107%	91.8%	94.1%	109%	93.8%	91.9%	99.2%	104%	95.4%	95.1%	106%	97.2%	100%	95.8%
CC12CCC(O)CC1CCC1C2CCC2(C)C(C3=CC(=O)OC3)CCC12O (stereo not given) [Digitoxigenin]	94.5%	102%	98.9%	3.66%	-0.896%	106%	95.9%	86.2%	2.96%	-1.17%	97.3%	97.5%	107%	0.616%	-1.47%	94.8%	106%	77.1%	3.12%	-1.21%
C[C@H]1O[C@@H](O[C@H]2[C@@H](O)C[C@H](O[C@H]3[C@@H](O)C[C@H](O[C@H]4CC[C@@]5(C)[C@H](CC[C@@H]6[C@@H]5C[C@@H](O)[C@]5(C)[C@@H](C7=CC(=O)OC7)CC[C@]65O)C4)O[C@@H]3C)O[C@@H]2C)C[C@H](O)[C@@H]1O [Digoxin]	99.1%	95.3%	25%	0.788%	0.361%	92.3%	106%	3.24%	-0.0612%	-0.063%	99%	109%	5.07%	-0.2%	-0.154%	95.2%	107%	41.8%	-0.121%	0.146%
O=c1c2ccccc2[se]n1-c1ccccc1 [Ebselen]	103%	97.8%	104%	96.5%	93.1%	90.5%	101%	84.4%	106%	83.8%	95.6%	96.7%	96.1%	96.9%	82%	96.6%	102%	91%	90.5%	72.3%
Clc1ccc(COC(Cn2ccnc2)c2ccc(Cl)cc2Cl)cc1 (stereo not given) [Econazole]	116%	91.2%	96.9%	84.2%	54.8%	114%	92.6%	84.2%	70.1%	43.1%	110%	88.3%	112%	89.8%	58.1%	97.4%	89.8%	93.1%	69%	38.1%
C#Cc1cnc(O)nc1O [Eniluracil]	109%	115%	113%	104%	113%	94.6%	115%	106%	109%	85.9%	102%	120%	110%	97.3%	107%	101%	113%	113%	102%	94.5%
